Reference: the supplement of paper PMC10307832

What was measured:
Test in all cases: relative viability (nuclei count vs DMSO), 5 days (fraction); higher = more cells survive
[1] = compound: CC1(C)CNc2cc(NC(=O)c3cccnc3NCc3ccncc3)ccc21 [Motesanib] + COc1cc2c(Oc3ccc(NC(=O)C4(C(=O)Nc5ccc(F)cc5)CC4)cc3F)ccnc2cc1OCCCN1CCOCC1 [Foretinib] (partner 0.25 µM)
In short: (§1)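 Relative viability equals treated-well nuclei counts divided by vehicle-well nuclei counts. Counts came from 4× images of lung cancer cell lines grown in 1536-well plates for 5 days after pin-tool dosing on the day after seeding. Dosing used one drug alone or a fixed anchor-drug dose plus five library-drug doses (not always all listed) in √10 steps, and values are medians of duplicate plates.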

[2] = compound: CC1(C)CNc2cc(NC(=O)c3cccnc3NCc3ccncc3)ccc21 [Motesanib] + Cc1nc(NC(=O)N2CCC[C@H]2C(N)=O)sc1-c1ccnc(C(C)(C)C(F)(F)F)c1 [Alpelisib] (partner 2 µM)
In short: as §1

[3] = compound: CC1(C)CNc2cc(NC(=O)c3cccnc3NCc3ccncc3)ccc21 [Motesanib] + O=C(CCCCCCC(=O)Nc1ccccc1)NO [Vorinostat] (partner 1 µM)
In short: as §1

[4] = compound: C[C@@]1(C(=O)Nc2ccc(F)nc2)CCCN1c1nc(Nc2cc(C3CC3)n[nH]2)c2cccn2n1 + O=C(CCCCCCC(=O)Nc1ccccc1)NO [Vorinostat] (partner 1 µM)
In short: as §1

UMC-11
relative viability ([1]; first compound 0.01 µM): 0.998
relative viability ([1]; first compound 0.03162 µM): 1.08
relative viability ([1]; first compound 0.1 µM): 0.985
relative viability ([1]; first compound 0.3162 µM): 1.08
relative viability ([1]; first compound 1 µM): 1.2
relative viability ([2]; first compound 0.01 µM): 0.923
relative viability ([2]; first compound 0.03162 µM): 0.973
relative viability ([2]; first compound 0.1 µM): 0.981
relative viability ([2]; first compound 0.3162 µM): 1.03
relative viability ([2]; first compound 1 µM): 1.03
relative viability ([3]; first compound 0.01 µM): 0.44
relative viability ([3]; first compound 0.03162 µM): 0.438
relative viability ([3]; first compound 0.1 µM): 0.345
relative viability ([3]; first compound 0.3162 µM): 0.426
relative viability ([3]; first compound 1 µM): 0.476
relative viability ([4]; first compound 0.04 µM): 0.398
relative viability ([4]; first compound 0.1265 µM): 0.432
relative viability ([4]; first compound 0.4 µM): 0.359
relative viability ([4]; first compound 1.265 µM): 0.258
